In ChEMBL document CHEMBL1150930, “Metabolism of rosmarinic acid in rats” (J Nat Prod, 1998):

Key:
Parameters in all cases: dose 200 mg/kg, route oral
[1] = Metabolic stability in Sprague-Dawley rat assessed as urinary excretion of unchanged drug level at 200 mg/kg, po after 0 to 4 hrs by HPLC; type: ADME, organism-based; conditions: urine, read-out: Activity
[2] = test system: Rattus norvegicus; assay: Metabolic stability in Sprague-Dawley rat assessed as urinary excretion of total metabolites at 200 mg/kg, po after 0 to 72 hrs by HPLC; type: ADME, organism-based, Urine; conditions: in vivo
[3] = test system: Rattus norvegicus; assay: Metabolic stability in Sprague-Dawley rat assessed as urinary excretion of trans-m-coumaric acid level at 200 mg/kg, po after 0 to 8 hrs by HPLC; type: ADME, organism-based, Urine; conditions: in vivo
[4] = test system: Rattus norvegicus; assay: Metabolic stability in Sprague-Dawley rat assessed as urinary excretion of trans-ferulic acid 4-O-sulfate level at 200 mg/kg, po after 0 to 48 hrs by HPLC; type: ADME, organism-based, Urine; conditions: in vivo
[5] = test system: Rattus norvegicus; assay: Metabolic stability in Sprague-Dawley rat assessed as urinary excretion of m-hydroxyphenyl-propionic acid level at 200 mg/kg, po after 0 to 24 hrs by HPLC; type: ADME, organism-based, Urine; conditions: in vivo
[6] = test system: Rattus norvegicus; assay: Metabolic stability in Sprague-Dawley rat assessed as urinary excretion of m-hydroxyphenyl-propionic acid level at 200 mg/kg, po after 0 to 48 hrs by HPLC; type: ADME, organism-based, Urine; conditions: in vivo
[7] = test system: Rattus norvegicus; assay: Metabolic stability in Sprague-Dawley rat assessed as urinary excretion of trans-m-coumaric acid 3-O-sulfate level at 200 mg/kg, po after 0 to 36 hrs by HPLC; type: ADME, organism-based, Urine; conditions: in vivo
[8] = test system: Rattus norvegicus; assay: Metabolic stability in Sprague-Dawley rat assessed as urinary excretion of trans-ferulic acid 4-O-sulfate level at 200 mg/kg, po after 0 to 72 hrs by HPLC; type: ADME, organism-based, Urine; conditions: in vivo
[9] = test system: Rattus norvegicus; assay: Metabolic stability in Sprague-Dawley rat assessed as urinary excretion of trans-m-coumaric acid 3-O-sulfate level at 200 mg/kg, po after 0 to 72 hrs by HPLC; type: ADME, organism-based, Urine; conditions: in vivo
[10] = test system: Rattus norvegicus; assay: Metabolic stability in Sprague-Dawley rat assessed as urinary excretion of trans-m-coumaric acid level at 200 mg/kg, po after 0 to 72 hrs by HPLC; type: ADME, organism-based, Urine; conditions: in vivo
[11] = test system: Rattus norvegicus; assay: Metabolic stability in Sprague-Dawley rat assessed as urinary excretion of trans-ferulic acid 4-O-sulfate level at 200 mg/kg, po after 0 to 24 hrs by HPLC; type: ADME, organism-based, Urine; conditions: in vivo
[12] = test system: Rattus norvegicus; assay: Metabolic stability in Sprague-Dawley rat assessed as urinary excretion of total metabolites at 200 mg/kg, po after 0 to 36 hrs by HPLC; type: ADME, organism-based, Urine; conditions: in vivo
[13] = test system: Rattus norvegicus; assay: Metabolic stability in Sprague-Dawley rat assessed as urinary excretion of trans-caffeic acid 4-O-sulfate level at 200 mg/kg, po after 0 to 4 hrs by HPLC; type: ADME, organism-based, Urine; conditions: in vivo
[14] = test system: Rattus norvegicus; assay: Metabolic stability in Sprague-Dawley rat assessed as urinary excretion of trans-caffeic acid level at 200 mg/kg, po after 0 to 48 hrs by HPLC; type: ADME, organism-based, Urine; conditions: in vivo
[15] = Metabolic stability in Sprague-Dawley rat assessed as urinary excretion of unchanged drug level at 200 mg/kg, po after 0 to 36 hrs by HPLC; type: ADME, organism-based; conditions: urine, read-out: Activity
[16] = test system: Rattus norvegicus; assay: Metabolic stability in Sprague-Dawley rat assessed as urinary excretion of trans-m-coumaric acid 3-O-sulfate level at 200 mg/kg, po after 0 to 24 hrs by HPLC; type: ADME, organism-based, Urine; conditions: in vivo
[17] = test system: Rattus norvegicus; assay: Metabolic stability in Sprague-Dawley rat assessed as urinary excretion of total metabolites at 200 mg/kg, po after 0 to 8 hrs by HPLC; type: ADME, organism-based, Urine; conditions: in vivo
[18] = test system: Rattus norvegicus; assay: Metabolic stability in Sprague-Dawley rat assessed as urinary excretion of total metabolites at 200 mg/kg, po after 0 to 24 hrs by HPLC; type: ADME, organism-based, Urine; conditions: in vivo
[19] = test system: Rattus norvegicus; assay: Metabolic stability in Sprague-Dawley rat assessed as urinary excretion of trans-caffeic acid level at 200 mg/kg, po after 0 to 4 hrs by HPLC; type: ADME, organism-based, Urine; conditions: in vivo
[20] = test system: Rattus norvegicus; assay: Metabolic stability in Sprague-Dawley rat assessed as urinary excretion of trans-m-coumaric acid level at 200 mg/kg, po after 0 to 36 hrs by HPLC; type: ADME, organism-based, Urine; conditions: in vivo
[21] = test system: Rattus norvegicus; assay: Metabolic stability in Sprague-Dawley rat assessed as urinary excretion of trans-caffeic acid 4-O-sulfate level at 200 mg/kg, po after 0 to 72 hrs by HPLC; type: ADME, organism-based, Urine; conditions: in vivo
[22] = test system: Rattus norvegicus; assay: Metabolic stability in Sprague-Dawley rat assessed as urinary excretion of trans-caffeic acid 4-O-sulfate level at 200 mg/kg, po after 0 to 24 hrs by HPLC; type: ADME, organism-based, Urine; conditions: in vivo
[23] = test system: Rattus norvegicus; assay: Metabolic stability in Sprague-Dawley rat assessed as urinary excretion of trans-caffeic acid 4-O-sulfate level at 200 mg/kg, po after 0 to 36 hrs by HPLC; type: ADME, organism-based, Urine; conditions: in vivo
[24] = test system: Rattus norvegicus; assay: Metabolic stability in Sprague-Dawley rat assessed as urinary excretion of trans-m-coumaric acid 3-O-sulfate level at 200 mg/kg, po after 0 to 48 hrs by HPLC; type: ADME, organism-based, Urine; conditions: in vivo
[25] = Metabolic stability in Sprague-Dawley rat assessed as urinary excretion of unchanged drug level at 200 mg/kg, po after 0 to 48 hrs by HPLC; type: ADME, organism-based; conditions: urine, read-out: Activity
[26] = test system: Rattus norvegicus; assay: Metabolic stability in Sprague-Dawley rat assessed as urinary excretion of trans-m-coumaric acid level at 200 mg/kg, po after 0 to 24 hrs by HPLC; type: ADME, organism-based, Urine; conditions: in vivo

## O=C(/C=C/c1ccc(O)c(O)c1)O[C@H](Cc1ccc(O)c(O)c1)C(=O)O [ROSMARINIC ACID]
[1]
  dose excreted: 0.041%
[2]
  Activity: 31.836%
[3]
  Activity: 0.015%
[4]
  Activity: 0.581%
[5]
  Activity: 14.527%
[6]
  Activity: 18.357%
[7]
  Activity: 11.778%
[8]
  Activity: 0.581%
[9]
  Activity: 12.137%
[10]
  Activity: 0.413%
[11]
  Activity: 0.538%
[12]
  Activity: 30.483%
[13]
  Activity: 0.038%
[14]
  Activity: 0.117%
[15]
  dose excreted: 0.077%
[16]
  Activity: 7.456%
[17]
  Activity: 1.476%
[18]
  Activity: 23.143%
[19]
  Activity: 0.01%
[20]
  Activity: 0.399%
[21]
  Activity: 0.154%
[22]
  Activity: 0.149%
[23]
  Activity: 0.154%
[24]
  Activity: 12.137%
[25]
  dose excreted: 0.077%
[26]
  Activity: 0.333%
